Measurements from US20230407243A1, “GENETIC PLATFORM TO INVESTIGATE THE FUNCTIONS OF BACTERIAL DRUG EFFLUX PUMPS” (priority 2022, published 2023).

What was measured:
Format in all cases: cell-based, Escherichia coli
EKO-35 araC::acrB = assay: MIC susceptibility profiling, efflux platform
Summary of the method: (§1)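 LB o/n 37 °C → PBS pH 7.4, OD600 ~1.0 → 1/2000 in MHB II; 2-fold cmpd series, duplicate, DMSO ctrl; 18 h 37 °C, 900 rpm; OD600 post minus pre.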

EKO-35 araC::acrD = assay: MIC susceptibility profiling, efflux platform; settings: EKO-35 araC::acrD compared to EKO-35
Summary of the method: as §1

EKO-35 araC::emrAB = assay: MIC susceptibility profiling, efflux platform
Summary of the method: as §1

EKO-35 araC::emrKY = assay: MIC susceptibility profiling, efflux platform
Summary of the method: as §1

EKO-35 araC::macAB = assay: MIC susceptibility profiling, efflux platform
Summary of the method: as §1

EKO-35 araC::mdtEF = assay: MIC susceptibility profiling, efflux platform
Summary of the method: as §1

[1] = system: EKO-35 araC::mexCD (MexCD from P. aeruginosa); assay: MIC susceptibility profiling, efflux platform
Summary of the method: as §1

[2] = system: EKO-35 porinated strain expressing acrB; assay: Checkerboard synergy (FICI), porinated strain
Method: (§2) Synergy measurement using checkerboard analysis was performed in 96-well microtiter plates using the microdilution broth method, according to CLSI guidelines (Patel J. B., 2015). The cell inocula were prepared using the colony resuspension method. The minimum inhibitory concentrations (MICs) were defined as the lowest concentration that provided no growth, as determined by measurement of the OD600nm using a Synergy H1 microplate reader (BioTek). Susceptibility testing was performed in MHB II with a final volume of 100 μL. PAI3N (Bachem Americas) was solubilized in MHB II. […] Solvent controls were included in each plate.
(§3) The Fractional Inhibitory Concentration Index (FICI) was used to assess the synergy of PAI3N in combination with different antibiotics. The FICI represents the ΣFIC of each drug. The FICI for each drug was calculated using the following formula: FICI=FICA+FICB=(CA/MICA)+(CB/MICB). Where MICA and MICB are the MICs of drugs A (PAI3N/NMP) and B (antibiotic) alone, and CA and CB are the MICs of the drugs in combination. The effects of PAβN or NMP in combination with antibiotics were classified as: synergistic (FICI<0.5), additive (FICI>0.5-1.0), indifferent (FICI>1.0-2.0), and antagonistic (FICI>2.0). Fold increases in resistance provided by efflux pumps were calculated by dividing the MIC values of strains expressing efflux pumps by the MIC value of EKO-35.

[3] = system: EKO-35-Pore acrBD408A (functionally inactive AcrB variant); assay: Checkerboard synergy (FICI), porinated strain
Method: as §2, §3

EKO-35-Pore = assay: Checkerboard synergy (FICI), porinated strain
Method: as §2, §3

wild-type K-12-Pore = assay: Checkerboard synergy (FICI), porinated strain
Method: as §2, §3

[4] = EKO-35 acrB Pore, NMP + antibiotic
[5] = EKO-35 acrB Pore, PAβN + antibiotic
[6] = strain EKO-35 acrB Pore, NMP + antibiotic
[7] = EKO-35 acrBD408A Pore, NMP + antibiotic
[8] = EKO-35 acrBD408A Pore, PAβN + antibiotic
[9] = strain EKO-35 acrBD408A Pore, NMP + antibiotic
[10] = strain EKO-35 Pore, NMP + antibiotic
[11] = strain K-12 Pore, NMP + antibiotic

**Q.** With `CC(=O)O[C@H]1C[C@@]2(C)[C@@H](C[C@@H](O)[C@H]3[C@@]4(C)CC[C@@H](O)[C@@H](C)[C@@H]4CC[C@@]32C)/C1=C(\CCC=C(C)C)C(=O)O` [fusidic acid] as the molecule, how does the “Fold change of MICs” value (EKO-35 araC::acrB; EKO-35 araC::acrB compared to EKO-35) read?
**A.** Its value is 128 fold.

**Q.** What about the MIC (EKO-35 araC::acrB; Escherichia coli, Table 13A, non-porinated, technical duplicate, read-out: Minimum Inhibitory Concentration, EKO-35 araC::acrB) of the same molecule?
**A.** Its MIC is 400 µg/mL.

**Q.** And the “Fold change of MICs” value (EKO-35 araC::acrD)?
**A.** Its value is 32 fold.

**Q.** And the “Fold change of MICs” value (EKO-35 araC::emrAB; EKO-35 araC::emrAB compared to EKO-35)?
**A.** The value was 2 fold.

**Q.** And the MIC (EKO-35 araC::emrAB; Escherichia coli, Table 13B, non-porinated, technical duplicate, read-out: Minimum Inhibitory Concentration, EKO-35 araC::emrAB)?
**A.** The MIC was 6.25 µg/mL.

**Q.** And the “Fold change of MICs” value (EKO-35 araC::emrKY; EKO-35 araC::emrKY compared to EKO-35)?
**A.** Its value is 1 fold.

**Q.** What about the MIC (EKO-35 araC::emrKY; Escherichia coli, Table 13B, non-porinated, technical duplicate, read-out: Minimum Inhibitory Concentration, EKO-35 araC::emrKY) of the same molecule?
**A.** Its MIC is 3.12 µg/mL.

**Q.** And the “Fold change of MICs” value (EKO-35 araC::macAB; EKO-35 araC::macAB compared to EKO-35)?
**A.** Its value is 1 fold.

**Q.** And the MIC (EKO-35 araC::macAB; Escherichia coli, Table 13B, non-porinated, technical duplicate, read-out: Minimum Inhibitory Concentration, EKO-35 araC::macAB)?
**A.** The MIC was 3.12 µg/mL.

**Q.** And the “Fold change of MICs” value (EKO-35 araC::mdtEF; EKO-35 araC::mdtEF compared to EKO-35)?
**A.** The value was 16 fold.

**Q.** And the MIC (EKO-35 araC::mdtEF; Escherichia coli, Table 13A, non-porinated, technical duplicate, read-out: Minimum Inhibitory Concentration, EKO-35 araC::mdtEF)?
**A.** Its MIC is 50 µg/mL.

**Q.** What about the “Fold change of MICs” value ([1]; EKO-35 araC::mexCD compared to EKO-35) of the same molecule?
**A.** Its value is 4 fold.

**Q.** And the MIC ([1]; Table 13B, non-porinated, technical duplicate, read-out: Minimum Inhibitory Concentration, EKO-35 araC::mexCD)?
**A.** Its MIC is 12.5 µg/mL.

**Q.** What about the Effect [2, 4] of the same molecule?
**A.** Its Effect is “Synergistic”.

**Q.** And the FICI [2, 4]?
**A.** Its FICI is 0.500.

**Q.** And the Effect [2, 5]?
**A.** Its Effect is “Synergistic”.

**Q.** And the FICI [2, 5]?
**A.** Its FICI is 0.129.

**Q.** What about the “MICb Alone” value ([2]; EKO-35 acrB Pore, antibiotic alone (PAβN checkerboard)) of the same molecule?
**A.** Its value is 512 µg/mL.

**Q.** And the “MICb Combined” value ([2]; EKO-35 acrB Pore, antibiotic in combination with PAβN)?
**A.** The value was 2 µg/mL.

**Q.** What about the “potentiation of the labelled compound by NMP” value ([2]; porinated strain producing AcrB) of the same molecule?
**A.** The value was “enhancing the activity”.

**Q.** What about the Effect [2, 6] of the same molecule?
**A.** Its Effect is “Synergistic (Synergy (FICI ≤0.5))”.

**Q.** And the FICI [2, 6]?
**A.** Its FICI is 0.500.

**Q.** And the “MICb Alone” value ([2]; strain EKO-35 acrB Pore, antibiotic alone)?
**A.** Its value is 512 µg/mL.

**Q.** What about the Effect [3, 7] of the same molecule?
**A.** Its Effect is “Additive”.

**Q.** What about the FICI [3, 7] of the same molecule?
**A.** The FICI was 0.750.

**Q.** What about the Effect [3, 8] of the same molecule?
**A.** Its Effect is “Synergistic”.

**Q.** And the FICI [3, 8]?
**A.** Its FICI is 0.255.

**Q.** What about the “MICb Alone” value ([3]; EKO-35 acrBD408A Pore, antibiotic alone (PAβN checkerboard)) of the same molecule?
**A.** Its value is 1 µg/mL.

**Q.** And the “MICb Combined” value ([3]; EKO-35 acrBD408A Pore, antibiotic in combination with PAβN)?
**A.** The value was 0.13 µg/mL.

**Q.** And the Effect [3, 9]?
**A.** Its Effect is “Additive (additive (FICI >0.5-1.0))”.

**Q.** What about the FICI [3, 9] of the same molecule?
**A.** Its FICI is 0.750.

**Q.** What about the “MICb Alone” value ([3]; strain EKO-35 acrBD408A Pore, antibiotic alone) of the same molecule?
**A.** The value was 0.5 µg/mL.

**Q.** And the “MICb Combined” value ([3]; strain EKO-35 acrBD408A Pore, antibiotic in combination with NMP)?
**A.** Its value is 0.25 µg/mL.

**Q.** And the Effect (EKO-35-Pore; EKO-35 Pore, NMP + antibiotic)?
**A.** Its Effect is “Additive”.

**Q.** What about the FICI (EKO-35-Pore; EKO-35 Pore, NMP + antibiotic) of the same molecule?
**A.** Its FICI is 0.620.

**Q.** What about the Effect (EKO-35-Pore; EKO-35 Pore, PAβN + antibiotic) of the same molecule?
**A.** Its Effect is “Synergistic”.

**Q.** And the FICI (EKO-35-Pore; EKO-35 Pore, PAβN + antibiotic)?
**A.** Its FICI is 0.310.

**Q.** And the “MICb Alone” value (EKO-35-Pore; EKO-35 Pore, antibiotic alone (PAβN checkerboard))?
**A.** Its value is 1 µg/mL.

**Q.** What about the “MICb Combined” value (EKO-35-Pore; EKO-35 Pore, antibiotic in combination with PAβN) of the same molecule?
**A.** Its value is 0.06 µg/mL.

**Q.** And the “interaction of PAβN in combination with the labelled antibiotic (FICI)” value (EKO-35-Pore; porinated efflux-deficient strains)?
**A.** Its value is “synergy was maintained”.

**Q.** And the Effect (EKO-35-Pore; [10])?
**A.** Its Effect is “Additive (additive (FICI >0.5-1.0))”.

**Q.** And the FICI (EKO-35-Pore; [10])?
**A.** The FICI was 0.620.

**Q.** What about the “MICb Alone” value (EKO-35-Pore; strain EKO-35 Pore, antibiotic alone) of the same molecule?
**A.** Its value is 0.5 µg/mL.

**Q.** And the “MICb Combined” value (EKO-35-Pore; strain EKO-35 Pore, antibiotic in combination with NMP)?
**A.** The value was 0.06 µg/mL.

**Q.** What about the Effect (wild-type K-12-Pore; K-12 Pore, NMP + antibiotic) of the same molecule?
**A.** Its Effect is “Synergistic”.

**Q.** And the FICI (wild-type K-12-Pore; K-12 Pore, NMP + antibiotic)?
**A.** Its FICI is 0.500.

**Q.** What about the Effect (wild-type K-12-Pore; K-12 Pore, PAβN + antibiotic) of the same molecule?
**A.** Its Effect is “Synergistic”.

**Q.** And the FICI (wild-type K-12-Pore; K-12 Pore, PAβN + antibiotic)?
**A.** The FICI was 0.188.

**Q.** What about the “MICb Alone” value (wild-type K-12-Pore; K-12 Pore, antibiotic alone (PAβN checkerboard)) of the same molecule?
**A.** The value was 512 µg/mL.

**Q.** What about the “MICb Combined” value (wild-type K-12-Pore; K-12 Pore, antibiotic in combination with PAβN) of the same molecule?
**A.** Its value is 32 µg/mL.

**Q.** And the Effect (wild-type K-12-Pore; [11])?
**A.** The Effect was “Synergistic (Synergy (FICI ≤0.5))”.

**Q.** What about the FICI (wild-type K-12-Pore; [11]) of the same molecule?
**A.** The FICI was 0.500.

**Q.** What about the “MICb Alone” value (wild-type K-12-Pore; strain K-12 Pore, antibiotic alone) of the same molecule?
**A.** The value was 512 µg/mL.
